# Key:
# Lactococcus lactis = test: Inhibitory activity against family of dihydroorotate dehydrogenase 1A (1A DHOD) from Lactococcus lactis at 1 uMolar concentration; set-up: scale not given: the % may be the effect or the level left; conditions: 1 uM
# [1] = Inhibition constant against dihydroorotate dehydrogenase 1A (1A DHOD) from Lactococcus lactis
# [2] = Dissociation constant against dihydroorotate dehydrogenase 1A (1A DHOD) from Lactococcus lactis at 25 degrees C pH 8.0
# [3] = Inhibition constant against 1A […] dehydrogenase (1A DHOD) from Lactococcus lactis
# [4] = Dissociation constant against 1A […] dehydrogenase (1A DHOD) from Lactococcus lactis at 25 degrees C pH 8.0
SMILES,Activity (Lactococcus lactis),further results
O=C(O)c1ccc(O)cc1,92%,–
O=C(O)c1ccc(O)cc1O,91%,–
O=C(O)c1ccc(O)nc1,94%,–
O=C(O)c1ccccc1O,81%,–
"O=C(O)c1cc(O)cc(O)c1 [3,5-DIHYDROXYBENZOIC ACID]",6%,Ki [1]: 21 µM; Kd [2]: 18.4 µM
O=C(O)c1ccc(O)c(O)c1 [PROTOCATECHUIC ACID],7%,Ki [3]: 12 µM; Kd [4]: 19 µM
